Assay results from patent publication US20210052741A1, “GENE THERAPY METHODS AND COMPOSITIONS USING AUXOTROPHIC REGULATABLE CELLS” (AUXOLYTIC LTD, priority 2018, published 2021).
“And” between values parts separate entries of the source, which are not always exact repeats. Identical values can stand only once.

How the values were obtained:
Type in all cases: cell-based, human
Mock T cells [1] = experiment: 5-FOA selection, cell counts after 4 days; conditions: for Average of cells per volume unit / Average number of cells per volume unit: Mock; for Average of cells per volume unit: 4 days in 5-FOA without serum; for Average number of cells per volume unit: 4 days in 5-FOA
Experimental: (§1) 5-FOA selects for uracil auxotrophic cells in other organisms (e.g. Boeke et al. 1984, Mol. Gen. Genet. 197(2):345-6), which is hereby incorporated by reference in its entirety). To investigate the potential utility of 5-FOA for the selection of uracil auxotrophs among human cells, the UMPS gene was targeted in human T cells by Cas9-gRNA complex electroporation followed by recovery (as shown in Example 2) followed by an assay of resistance to 5-FOA treatment (FIG. 3A). Cells were grown in 5-FOA and a variety of combinations of serum and uracil sources for 4 days before cell counting was performed.

UMPS-7 targeted T cells = experiment: 5-FOA selection, cell counts after 4 days; conditions: for Average of cells per volume unit: UMPS-7, 4 days in 5-FOA without serum; for Average number of cells per volume unit: UMPS-7, 4 days in 5-FOA
Experimental: as §1

UMPS^KO/KO hESCs = experiment: Auxotrophy assay with different uridine concentrations; conditions: for Viable cell counts: day 4 after seeding
Experimental: The UMPS locus was disrupted in the hESCs by electroporation of Cas9 RNP and selection of a clone with InDels in exon 1 as evaluated by amplification and Sanger sequencing of the genomic locus. For gene editing, hESCs were treated with 10 μm ROCK inhibitor (Y-27632) for 24 hours before electroporation. Cells at 70-80% confluence were harvested with ACCUTASE® solution (Life Technologies). 500,000 cells were used per reaction with a SpCas9 concentration of 150 μg/mL (Integrated DNA Technologies) and a Cas9:sgRNA molar ratio of 1:3 and electroporation performed in P3 Primary Cell solution (Lonza) in 16-well NUCLEOCUVETTE™ Strips in the 4D NUCLEOFECTOR system (Lonza). Immediately after electroporation, cells were transferred into one well of a […]® protein mixture (Corning, Inc.)-coated 24 well plate containing 500 μl of mTeSR™ media ([…] Technologies) with 10 μM Y-27632. Media was changed 24 hours after editing and Y-27632 was removed 48 hours after.
An auxotrophy assay was performed over four days with different concentrations of uridine. Microscope photos of wells were taken on day 4 after seeding UMPS^KO/KO hESCs at similar densities and culturing in the presence of different uridine concentrations. […] Quantification of viable cells on day 4 after seeding to evaluate the effect of different uridine concentrations is shown in Table 15.

WT T cells = experiment: Auxotrophy assay in sorted T cells; conditions: for Viable cells per ml: Anti-CD3/-CD28 beads
Experimental: (§2) These T cells were also subjected to an auxotrophy assay and the possibility to select these cells with 5-FOA was tested. […] Higher Uridine concentrations led to higher proliferation rates. Auxotrophic growth of UMPS KO or wild-type (WT) T cells is shown in FIG. 7B and Table 28.

UMPS KO T cells = experiment: Auxotrophy assay in sorted T cells; conditions: for Relative viability on Day 4 (%) / Viable cells per ml: UMPS KO
Experimental: as §2

[2] = tested on: UMPS^KO/KO/GFP^+ K562 cells; experiment: Auxotrophy assay in K562 cells
Experimental: The sorted UMPS^KO/KO/GFP^+ cell population were subjected to assays evaluating their auxotrophy and their resistance to 5-FOA. The cells were split into samples of equal numbers and cultured in the presence of different concentrations of Uridine or without. […] Cell growth was inhibited at a lower concentration (25 μg/ml) while cell numbers declined with a lower concentration or no Uridine (FIG. 6E).

Mock T cells [3] = experiment: Growth time course with/without UMP or uridine; conditions: metabolite 250 μg/ml
Experimental: (§3) Genomic DNA was harvested using QUICKEXTRACT™ DNA Extraction Kit (Epicentre). Cells were counted on an automated cell counter using Trypan blue staining or on a CytoFLEX flow cytometer (Beckman Coulter) with automatic plate reader using COUNTBRIGHT™ beads (ThermoFisher) as a reference for normalizing the values. Alternatively, cells were analyzed after staining with fluorochrome-labelled antibodies (Biolegend) on an ACCURI™ C6 flow cytometer (BD Biosciences), which also measures volumes, or a FACS ARIA™ II SORP cell sorter (BD Biosciences). Data was analyzed using Excel (Microsoft) and FlowJo software (Tree Star).
(§4) T Cells were electroporated and edited as in Example 2 and allowed to recover for a 4-day period in medium with serum, uridine, and UMP. On day 4, cells were shifted to UMP, uridine, or uracil source media.
(§5) To evaluate whether the UMPS knockout leads to differential cell proliferation if cultured without the addition of Uridine or Uridine monophosphate (UMP), the cell counts in culture were followed over time by automatic cell counting with Trypan blue staining. UMPS knockout led to lower cell counts from day 2 after electroporation, compared to cells that were mock electroporated or electroporated using Cas9 targeting a different genomic locus (i.e., CCR5) (FIG. 5B).

UMPS knockout T cells = experiment: Growth time course with/without UMP or uridine
Experimental: as §3, §4, §5

CCR5 knockout T cells = experiment: Growth time course with/without UMP or uridine; conditions: metabolite 250 μg/ml
Experimental: as §3, §4, §5

[4] = UMPS knockout, metabolite 250 μg/ml

O=C(O)c1[nH]c(=O)[nH]c(=O)c1F [5-FOA, 5-fluoroorotic acid]
Average of cells per volume unit (Mock T cells [1]; No UMP/Uridine): 12279.07 cells per volume unit and 16467.39 cells per volume unit | Average number of cells per volume unit (Mock T cells [1]; No Serum, No UMP/Uridine): 13947.04 cells per volume unit | Average number of cells per volume unit (Mock T cells [1]; With Serum, No UMP/Uridine): 13403.28 cells per volume unit | Average of cells per volume unit (UMPS-7 targeted T cells; No UMP/Uridine): 52156.98 cells per volume unit and 67438.73 cells per volume unit | Average number of cells per volume unit (UMPS-7 targeted T cells; No Serum, No UMP/Uridine): 56895.21 cells per volume unit | Average number of cells per volume unit (UMPS-7 targeted T cells; With Serum, No UMP/Uridine): 54282.95 cells per volume unit

O=c1ccn([C@@H]2O[C@H](CO)[C@@H](O)[C@H]2O)c(=O)[nH]1 [Uridine]
proliferation (microscope photos, day 4) (UMPS^KO/KO hESCs; 2.5-250 μg/ml uridine): proliferated | Viable cell counts (UMPS^KO/KO hESCs; uridine 2.5 μg/ml): 31040 and 38065 and 45189 | Viable cell counts (UMPS^KO/KO hESCs; uridine 25 μg/ml): 31810 and 39635 and 36283 | Viable cell counts (UMPS^KO/KO hESCs; uridine 250 μg/ml): 19147 and 31050 and 33955 | Relative viability of the cell population on Day 4 (WT T cells; 2.5 μg/ml Uridine): 84.64 and 82.19 and 80.45 | Viable cells per ml (WT T cells; 2.5 μg/ml uridine): 486192 cells per ml and 362626 cells per ml and 364194 cells per ml | Relative viability of the cell population on Day 4 (WT T cells; 25 μg/ml Uridine): 83.91 and 83.40 and 79.66 | Viable cells per ml (WT T cells; 25 μg/ml uridine): 384503 cells per ml and 410116 cells per ml and 338547 cells per ml | Relative viability of the cell population on Day 4 (WT T cells; 250 μg/ml Uridine): 86.05 and 86.97 and 87.62 | Viable cells per ml (WT T cells; 250 μg/ml uridine): 609575 cells per ml and 412493 cells per ml and 468354 cells per ml | proliferation (UMPS KO T cells; Anti-CD3/-CD28 beads, different Uridine concentrations): proliferated only in the presence of Uridine | Relative viability on Day 4 (%) (UMPS KO T cells; 2.5 μg/ml Uridine): 78.78 and 79.28 and 79.74 | Viable cells per ml (UMPS KO T cells; 2.5 μg/ml uridine, Anti-CD3/-CD28 beads): 226596 cells per ml and 217594 cells per ml and 224448 cells per ml | Relative viability on Day 4 (%) (UMPS KO T cells; 25 μg/ml Uridine): 82.16 and 81.57 and 83.09 | Viable cells per ml (UMPS KO T cells; 25 μg/ml uridine, Anti-CD3/-CD28 beads): 282368 cells per ml and 268684 cells per ml and 304864 cells per ml | Relative viability on Day 4 (%) (UMPS KO T cells; 250 μg/ml Uridine): 85.66 and 85.29 and 84.38 | Viable cells per ml (UMPS KO T cells; 250 μg/ml uridine, Anti-CD3/-CD28 beads): 319120 cells per ml and 345862 cells per ml and 348022 cells per ml | Number of cells per ml, Day 1 ([2]; 2.5 ug/ml Uridine): 57.83 cells per ml and 49.52 cells per ml and 40.56 cells per ml | Number of cells per ml, Day 1 ([2]; 25 ug/ml Uridine): 60.92 cells per ml and 69.81 cells per ml and 58.10 cells per ml | Number of cells per ml, Day 1 ([2]; 250 ug/ml Uridine): 83.41 cells per ml and 109.11 cells per ml and 64.28 cells per ml | Number of cells per ml, Day 8 ([2]; 250 ug/ml Uridine): 631.12 cells per ml and 629.35 cells per ml and 318.17 cells per ml | cell growth ([2]; Uridine 25 μg/ml): inhibited | cell growth ([2]; Uridine 250 μg/ml): expanded rapidly | cell numbers ([2]; lower Uridine concentration (2.5 μg/ml) or no Uridine): declined | Cell density, Day 1 (Mock T cells [3]): 9.78E+05 cells per ml | Cell density, Day 2 (Mock T cells [3]): 1.98E+06 cells per ml | Cell density, Day 4 (Mock T cells [3]): 3.90E+06 cells per ml | Cell density, Day 6 (Mock T cells [3]): 4.91E+06 cells per ml | Cell density, Day 8 (Mock T cells [3]): 4.09E+06 cells per ml | Cell density, Day 1 (UMPS knockout T cells; [4]): 7.69E+05 cells per ml | Cell density, Day 2 (UMPS knockout T cells; [4]): 1.59E+06 cells per ml | Cell density, Day 4 (UMPS knockout T cells; [4]): 3.43E+06 cells per ml | Cell density, Day 6 (UMPS knockout T cells; [4]): 3.79E+06 cells per ml | Cell density, Day 8 (UMPS knockout T cells; [4]): 3.17E+06 cells per ml | Number of viable cells per ml, Day 1 (UMPS knockout T cells; [4]): 769000 cells per ml | Number of viable cells per ml, Day 2 (UMPS knockout T cells; [4]): 1590000 cells per ml | Number of viable cells per ml, Day 4 (UMPS knockout T cells; [4]): 3430000 cells per ml | Number of viable cells per ml, Day 6 (UMPS knockout T cells; [4]): 3790000 cells per ml | Number of viable cells per ml, Day 8 (UMPS knockout T cells; [4]): 3170000 cells per ml | growth of UMPS edited culture (UMPS knockout T cells; exogenous uracil source 250 μg/ml): rescued the growth of an UMPS edited culture to the same level as mock edited cells | cell proliferation after UMPS knockout (UMPS knockout T cells; supplemented at 250 μg/ml): not impaired | Cell density, Day 1 (CCR5 knockout T cells): 9.67E+05 cells per ml | Cell density, Day 2 (CCR5 knockout T cells): 1.71E+06 cells per ml | Cell density, Day 4 (CCR5 knockout T cells): 3.70E+06 cells per ml | Cell density, Day 6 (CCR5 knockout T cells): 3.92E+06 cells per ml | Cell density, Day 8 (CCR5 knockout T cells): 3.96E+06 cells per ml | Average of cells per volume unit (Mock T cells [1]; with substrate): 53052.43 cells per volume unit | survival in 5-FOA compared to control (Mock T cells [1]; mock treated cells): improved the survival | survival in 5-FOA compared to control (UMPS-7 targeted T cells; UMPS targeted cells): improved the survival | Average of cells per volume unit (UMPS-7 targeted T cells; with substrate): 77755.72 cells per volume unit
